Measured values as given in patent publication US12409171B2, “Pharmaceutically active pyrazolo-pyridone modulators of DCN1/2-mediated cullin neddylation” (UNIVERSITY OF KENTUCKY RESEARCH FOUNDATION, priority 2019, dated 2025).

Target: DCN1 (Homo sapiens (Human), UniProt Q96GG9)
Experiment: TR-FRET binding assay (biotin-DCN1 / Ac-UBE2M12-AlexaFluor488)
Settings: mean ± SD (n); read-out: DCN1_TRFRET Mean EC50
Protocol: • IC50 values were generated using our TR-FRET binding assay and are represented as the mean of three replicates with errors reported as the standard deviation.
The assay cocktail was then incubated for 1 h at room temperature and distributed using a WellMate instrument (Matrix). Compounds to be screened were added to assay plates from DMSO stock solutions by pin transfer using 50SS pins (V&P Scientific). […] All compounds were tested in triplicate or more.

Chain of DCN1 (Q96GG9 whole entry): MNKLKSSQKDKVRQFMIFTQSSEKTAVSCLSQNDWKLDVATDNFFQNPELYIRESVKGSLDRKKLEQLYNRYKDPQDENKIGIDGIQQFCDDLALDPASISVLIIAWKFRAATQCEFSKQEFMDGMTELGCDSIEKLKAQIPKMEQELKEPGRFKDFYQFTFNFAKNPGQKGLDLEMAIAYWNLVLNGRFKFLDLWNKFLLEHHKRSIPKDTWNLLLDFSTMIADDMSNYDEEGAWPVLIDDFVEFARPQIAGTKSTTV

SMILES	EC50
CC/C=C/C(=O)N[C@@H]1C(=O)N(CC)c2c(c(C)nn2-c2ccccc2)[C@@H]1c1ccc(F)cc1 [RG-0014157, (2E)-N-[(4S,5S)-7-ethyl-4-(4-fluorophenyl)-3-methyl-6-oxo-1-phenyl-1H,4H,5H,6H,7H-pyrazolo[3,4-b]pyridin-5-yl]pent-2-enamide]	> 30.7 µM
CCN1C(=O)[C@@H](NC(=O)c2cccc(C(F)(F)F)c2)[C@@H](c2ccc(F)cc2)c2c(CN3CCCC3)nn(-c3ccccc3)c21 [RG-0014154, N-[(4S,5S)-7-ethyl-4-(4-fluorophenyl)-6-oxo-1-phenyl-3-[(pyrrolidin-1-yl)methyl]-1H,4H,5H,6H,7H-pyrazolo[3,4-b]pyridin-5-yl]-3-(trifluoromethyl)benzamide]	0.0835 ± 0.00939 µM
CCN1C(=O)[C@@H](NC(=O)c2cccc(C)c2)[C@@H](c2ccc(F)cc2)c2c(C)nn(C(C)C)c21 [RG-0008860, N-[(4S,5S)-7-ethyl-4-(4-fluorophenyl)-3-methyl-6-oxo-1-(propan-2-yl)-1H,4H,5H,6H,7H-pyrazolo[3,4-b]pyridin-5-yl]-3-methylbenzamide]	0.467 ± 0.028 µM
CCN1C(=O)[C@@H](NC(=O)c2cccc(C(F)(F)F)c2)[C@@H](c2ccc(F)cc2)c2c(C)nn(-c3cccc(C)c3)c21 [RG-0014035, N-[(4S,5S)-7-ethyl-4-(4-fluorophenyl)-3-methyl-1-(3-methylphenyl)-6-oxo-1H,4H,5H,6H,7H-pyrazolo[3,4-b]pyridin-5-yl]-3-(trifluoromethyl)benzamide]	0.388 ± 0.0385 µM
Cc1cccc(C(=O)N[C@@H]2C(=O)N(C(C)C)c3c(c(C)nn3-c3ccccc3)[C@@H]2c2ccc(F)cc2)c1 [RG-0008670, N-[(4S,5S)-4-(4-fluorophenyl)-3-methyl-6-oxo-1-phenyl-7-(propan-2-yl)-1H,4H,5H,6H,7H-pyrazolo[3,4-b]pyridin-5-yl]-3-methylbenzamide]	4.14 ± 0.765 µM
COC(=O)CN1C(=O)[C@@H](NC(=O)c2cccc(C(F)(F)F)c2)[C@@H](c2ccc(F)cc2)c2c(C)nn(-c3ccccc3)c21 [RG-0013841, methyl 2-[(4S,5S)-4-(4-fluorophenyl)-3-methyl-6-oxo-1-phenyl-5-[3-(trifluoromethyl)benzamido]-1H,4H,5H,6H,7H-pyrazolo[3,4-b]pyridin-7-yl]acetate]	5.54 ± 1.08 µM
CCN1C(=O)[C@@H](NC(=O)c2cccc(C(F)(F)F)c2)[C@@H](c2ccc(F)cc2)c2c(CN3CCC(C)CC3)nn(-c3ccccc3)c21 [RG-0014143, N-[(4S,5S)-7-ethyl-4-(4-fluorophenyl)-3-[(4-methylpiperidin-1-yl)methyl]-6-oxo-1-phenyl-1H,4H,5H,6H,7H-pyrazolo[3,4-b]pyridin-5-yl]-3-(trifluoromethyl)benzamide]	0.0827 ± 0.00769 µM
CCN1C(=O)[C@@H](NS(=O)(=O)c2cccc(C(F)(F)F)c2)[C@@H](c2ccc(F)cc2)c2c(C)nn(-c3ccccc3)c21 [RG-0013808, N-[(4S,5S)-7-ethyl-4-(4-fluorophenyl)-3-methyl-6-oxo-1-phenyl-1H,4H,5H,6H,7H-pyrazolo[3,4-b]pyridin-5-yl]-3-(trifluoromethyl)benzene-1-sulfonamide]	> 36.5 µM
CCN1C(=O)[C@@H](NC(=O)c2ccc(C)s2)[C@@H](c2ccc(F)cc2)c2c(C)nn(-c3ccccc3)c21 [RG-0014062, N-[(4S,5S)-7-ethyl-4-(4-fluorophenyl)-3-methyl-6-oxo-1-phenyl-1H,4H,5H,6H,7H-pyrazolo[3,4-b]pyridin-5-yl]-5-methylthiophene-2-carboxamide]	2.34 ± 0.0772 µM
CCN1C(=O)[C@@H](NC(=O)c2cccc(C)c2)[C@@H](c2ccc(F)cc2)c2c(C)nn(CC(F)(F)F)c21 [RG-0008871, N-[(4S,5S)-7-ethyl-4-(4-fluorophenyl)-3-methyl-6-oxo-1-(2,2,2-trifluoroethyl)-1H,4H,5H,6H,7H-pyrazolo[3,4-b]pyridin-5-yl]-3-methylbenzamide]	0.729 ± 0.0901 µM
CCCn1nc(C)c2c1N(C)C(=O)[C@@H](NC(=O)c1cccc(C)c1)[C@H]2c1ccc(F)cc1 [RG-0007411, N-[(4S,5S)-4-(4-fluorophenyl)-3,7-dimethyl-6-oxo-1-propyl-1H,4H,5H,6H,7H-pyrazolo[3,4-b]pyridin-5-yl]-3-methylbenzamide]	0.585 ± 0.106 µM
CCN1C(=O)[C@@H](NC(=O)c2cccc(C)c2)[C@@H](c2ccc(F)cc2)c2c(C)nn(-c3ccccc3F)c21 [RG-0008870, N-[(4S,5S)-7-ethyl-1-(2-fluorophenyl)-4-(4-fluorophenyl)-3-methyl-6-oxo-1H,4H,5H,6H,7H-pyrazolo[3,4-b]pyridin-5-yl]-3-methylbenzamide]	0.187 ± 0.00573 µM
CCN1C(=O)[C@@H](NC(=O)C(C)(C)C)[C@@H](c2ccc(F)cc2)c2c(C)nn(-c3ccccc3)c21 [RG-0014063, N-[(4S,5S)-7-ethyl-4-(4-fluorophenyl)-3-methyl-6-oxo-1-phenyl-1H,4H,5H,6H,7H-pyrazolo[3,4-b]pyridin-5-yl]-2,2-dimethylpropanamide]	> 36.5 µM
Cc1nn(-c2ccccc2)c2c1[C@H](c1ccc(F)cc1)[C@H](NC(=O)c1cccc(C(F)(F)F)c1)C(=O)N2CCNC(=O)OC(C)(C)C [RG-0014162, tert-butyl N-{2-[(4S,5S)-4-(4-fluorophenyl)-3-methyl-6-oxo-1-phenyl-5-[3-(trifluoromethyl)benzamido]-1H,4H,5H,6H,7H-pyrazolo[3,4-b]pyridin-7-yl]ethyl}carbamate]	> 13.6 µM
CCN1C(=O)[C@@H](NC(=O)c2cccc(S(C)(=O)=O)c2)[C@@H](c2ccc(F)cc2)c2c(C)nn(-c3ccccc3)c21 [RG-0013977, N-[(4S,5S)-7-ethyl-4-(4-fluorophenyl)-3-methyl-6-oxo-1-phenyl-1H,4H,5H,6H,7H-pyrazolo[3,4-b]pyridin-5-yl]-3-methanesulfonylbenzamide]	> 36.5 µM
CCN1C(=O)[C@@H](NC(=O)c2cccc(C(F)(F)F)c2)[C@@H](c2cccs2)c2c(C)nn(-c3ccccc3)c21 [RG-0013988, N-[(4S,5S)-7-ethyl-3-methyl-6-oxo-1-phenyl-4-(thiophen-2-yl)-1H,4H,5H,6H,7H-pyrazolo[3,4-b]pyridin-5-yl]-3-(trifluoromethyl)benzamide]	1.33 ± 0.0507 µM
C=CC(=O)NCc1nn(-c2ccccc2)c2c1[C@H](c1ccc(F)cc1)[C@H](NC(=O)c1cccc(C(F)(F)F)c1)C(=O)N2CC [RG-0014047, N-[(4S,5S)-7-ethyl-4-(4-fluorophenyl)-6-oxo-1-phenyl-3-[(prop-2-enamido)methyl]-1H,4H,5H,6H,7H-pyrazolo[3,4-b]pyridin-5-yl]-3-(trifluoromethyl)benzamide]	0.0953 ± 0.00467 µM
CCN1C(=O)[C@@H](NC(=O)c2cccc([N+](=O)[O-])c2)[C@@H](c2ccc(F)cc2)c2c(C)nn(-c3ccccc3)c21 [RG-0013844, N-[(4S,5S)-7-ethyl-4-(4-fluorophenyl)-3-methyl-6-oxo-1-phenyl-1H,4H,5H,6H,7H-pyrazolo[3,4-b]pyridin-5-yl]-3-nitrobenzamide]	1.98 ± 0.134 µM
CCN1C(=O)[C@@H](NC(=O)c2cccc(C(F)(F)F)c2)[C@@H](c2ccc(F)cc2)c2c(CNS(N)(=O)=O)nn(-c3ccccc3)c21 [RG-0014161, N-[(4S,5S)-7-ethyl-4-(4-fluorophenyl)-6-oxo-1-phenyl-3-[(sulfamoylamino)methyl]-1H,4H,5H,6H,7H-pyrazolo[3,4-b]pyridin-5-yl]-3-(trifluoromethyl)benzamide]	0.145 ± 0.0262 µM
